Laboratory results: patent US9611330B2, “Compositions and methods for cancer and cancer stem cell detection and elimination” (The Regents of the University of California, priority 2011, dated 2017)
Entries after “also recorded” stand apart in the source; their conditions may differ. Where two headings read alike, the source gives them in different places.

Key:
[1] = test system: human blast crisis CML LSC; format: in vivo
Procedure: Human Progenitor Primagrafts and Treatment
Equal numbers of primary normal or blast crisis CML CD34^+ cells were transplanted intrahepatically into neonatal RAG2^−/−γc^−/− mice to form primagrafts, according to established methods^1, 3. At 8-12 weeks post-transplant, mice were treated with PF-04449913, Dasatinib, a combination of PF-04449913 and Dasatinib, or drug vehicle for 14 days followed by FACS analysis of human hematopoietic engraftment in hematopoietic tissues.
Nanofluidic phospho-proteomic immunoassay (NPI) experiments were performed with the NANOPRO 1000™ instrument (Cell Biosciences) and all samples were run in triplicate at least. The FIREFLY™ system first performed a charge-based separation (isoelectric focusing). Predicted pIs were calculated with SCANSITE™. Each sample was run on a panel of different pH gradients (pH 5-8) to optimize the resolution of different peak patterns. After separation and photo-activated in-capillary immobilization, GLI-2 was detected using GLI2-specific antibody (Abcam). A β2-microglubulin-specific antibody (β2M; Upstate) was used to normalize the amount of loaded protein. The peaks were quantified by calculating the area under the curve (AUC).
Primagrafts, in vivo Drug Treatment, and Engraftment Analysis
Immunocompromised RAG2^−/−γc^−/− mice were bred and maintained in the UC San Diego Moores Cancer Center vivarium. Neonatal mice were transplanted intrahepatically with normal progenitors or LSC from primary patient samples according to our previously published methods^19. Upon detection of tumor or peripheral blood engraftment, mice were treated daily by oral gavage with vehicle (50% 1,2 Propandiol, 50% HBSS or methylcellulose), PF-04449913 (100 mg/kg dissolved in vehicle), Dasatinib (50 mg/kg dissolved in vehicle), combination of PF-04449913 (100 mg/kg) and dasatinib (50 mg/kg). After treatment, mice were euthanized and single cell suspensions of hematopoietic tissues were analyzed for human engraftment by FACS as described previously^19, 20. Similarly, NOD.
Four vehicle-treated and four PF-04449913-treated samples constituting two sets of four technical replicates. The reads from the four RNA sequencing experiments under each treatment regimen were then combined for analysis of effects of vehicle and PF-04449913-treatment containing a total of 65M and 64M reads, respectively and compared with normal FACS purified cord blood CD34^+CD38^+Lin^− progenitors.
(§1) Single cell suspensions of bone marrow cells from mice treated with PF-0449913 or vehicle were immunostained with Alexa647-conjugated anti-human CD45 (BioLegend) in 2% fetal bovine serum/PBS followed by live cell staining using the LIVE/DEAD® Fixable Near-IR Dead Cell Stain Kit (Invitrogen). Surface stained cells were then fixed in 70% ethanol overnight. Fixed, surface stained cells were immunostained with FITC-conjugated anti-Ki-67 (Abcam, 1:100) in 0.15% saponin/2% fetal bovine serum/PBS, washed twice in saponin-containing staining media and incubated with 7-AAD (10 μg/mL in 0.1M sodium citrate/5 mM EDTA pH8.0/0.15M NaCl/0.5% BSA/0.02% saponin). Stained samples were analyzed using a FACSARIA™ and FLOWJO™^21.

[2] = target: T1, human SMO (amino acids 181-787) (Homo sapiens, UniProt Q99835); assay: SMO radioligand competition binding assay
T1 construct: V5-His (named only in the vector, pSecTag-FRT/V5-His); expressed in transfected cells; membranes prepared
T1 sequence (Q99835 181-787): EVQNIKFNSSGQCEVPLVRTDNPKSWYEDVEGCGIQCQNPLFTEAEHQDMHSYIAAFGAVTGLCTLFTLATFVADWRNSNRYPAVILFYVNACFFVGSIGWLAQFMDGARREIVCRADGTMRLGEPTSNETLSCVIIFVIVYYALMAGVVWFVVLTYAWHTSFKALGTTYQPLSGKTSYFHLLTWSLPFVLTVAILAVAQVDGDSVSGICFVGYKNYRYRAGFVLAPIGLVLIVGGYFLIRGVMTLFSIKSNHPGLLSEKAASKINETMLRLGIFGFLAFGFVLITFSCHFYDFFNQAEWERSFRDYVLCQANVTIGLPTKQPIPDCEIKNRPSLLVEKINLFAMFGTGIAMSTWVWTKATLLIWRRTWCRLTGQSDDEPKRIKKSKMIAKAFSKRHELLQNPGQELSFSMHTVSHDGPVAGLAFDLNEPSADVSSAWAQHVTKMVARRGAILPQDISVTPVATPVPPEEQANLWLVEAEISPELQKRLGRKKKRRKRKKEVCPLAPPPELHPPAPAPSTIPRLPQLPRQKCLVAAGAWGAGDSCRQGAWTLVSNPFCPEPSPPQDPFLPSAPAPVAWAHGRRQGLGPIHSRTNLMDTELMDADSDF
Procedure: SMO Radioligand Competition Binding Assay
Membranes were prepared from a stable cell line created in HEK293FlpIn-TetR cells (Invitrogen) using Flp recombinase-mediated insertion of the pSecTag-FRT/V5-His vector containing a cDNA encoding amino acids 181-787 of human Smo fused to the murine Igk leader sequence to produce a cell surface expressed […] protein. LacZ-negative cells were analyzed for binding a well characterized cyclopamine-competitive tritiated Smo antagonist^22. The tritiated ligand was prepared using Crabtree's catalyst and tritium gas. The labeled material was purified by RP HPLC (53.1 Ci/mmol specific activity at 99% purity). For the binding competition assay, 100 μl of assay buffer was added to all the wells of a 96 well GF/B filter plate (Millipore MULTISCREEN-HTS-FB™ cat # MSFBN6B50). The plates were counted in a TOPCOUNT™ scintillation counter (Perkin Elmer). Data analysis uses EXCEL™ for % Inhibition and GRAPHPAD PRISM™ for IC50 calculation.

normal human HSPC = assay: CD34+ cord blood engrafted NSG mice, 14-day treatment; format: in vivo; conditions: 100 mg/kg for 14 days
Procedure: Cg-Prkdc^scid Il2rg^tm1Wjl/SzJ female mice at 7-10 weeks were irradiated sublethally and transplanted with 100K CD34^+ human cord blood cells via retro-orbital injection. Eight weeks after transplantation of cord blood cells, the mice were treated for 14 days with either vehicle, or PF-04449913 via oral gavage.
as §1

[3] = test system: Shh stimulated luciferase expression under an 8× Gli-response element; assay: Mouse embryonic fibroblast Gli-luciferase reporter assay (Gli-Luc MEFs); format: cell-based; conditions: n=5, read-out: IC50, inhibition of Shh stimulated luciferase reporter activity in Gli-Luc MEFs
Excerpt: Mouse Embryonic Fibroblast Gli-Luciferase Assay Mouse Embryonic Fibroblasts expressing luciferase under control of an 8× Gli-response element (Gli-Luc MEFs)^23 were obtained from the Pfizer transgenic core facility. Luciferase activity was quantified with an ENVISION™ plate reader (Perkin Elmer). Graphpad Prism was used for data analysis and IC50 calculation.

[4] = test system: blast crisis CML leukemic progenitors (LSC); assay: SL/M2 stromal co-culture of blast crisis CML LSC; format: cell-based, human; conditions: 7 days, vs vehicle (DMSO), p=0.047
Procedure: Stromal Co-Culture and in vitro Drug Treatment
(§2) Normal or blast crisis CML CD34^+ cells were plated on confluent mitomycin-C treated SL/M2 cells with different doses of PF-04449913, dasatinib, a combination of PF-04449913 and dasatinib, or vehicle for […]. After 1 week of culture, FACS was used to quantify human progenitors and progenitors were FACS sorted into hematopoietic progenitor assays. Colonies were scored after 2 weeks in culture.
(§3) The mouse bone marrow stromal cells lines M2-10B4 (M2) and SL/SL (SL) were provided by StemCell Technologies on behalf of Dr. Donna Hogge in the Terry Fox Laboratory (Vancouver, British Columbia). One day prior to co-culture, the cell lines were treated with mitomycin-C (1 mg/ml) and plated in a 1:1 mixture in total concentration of 100,000/ml. 10,000-20,000 CD34^+ blast crisis CML or normal cells were then plated on adherent SL/M2 stromal cells, cultured for 7 days, and analyzed by FACS as described previously^19. To assess expansion of normal human HS/PCs, irradiated OP9 (M2 clone) stromal cells (20 Gray on a Saxon-Mark1 irradiator) were co-cultured with 50,000 human CD34^+ cord blood. OP9M2 stroma was grown in AlphaMem from Gibco with 20% Hyclone FBS, 1% pen strep glutamine and supplemented with cytokines: […] Flt3.

[5] = test system: normal human cord blood HSPC; assay: Normal human HSPC in hematopoietic progenitor assays and SL/M2 co-culture; format: cell-based
Procedure: as §2, §3

[6] = test system: Ptch+/−p53+/− medulloblastoma allografts; assay: Mouse medulloblastoma allograft model; format: in vivo; conditions: oral dosing
Excerpt: TAQMAN™ primer/probe sets (ABI) for FoxM1 (Mm00514924_ml), Gli1 (Mm00494645_ml), Gli2 (Mm01293117_ml), Mycn (Mm00476449_ml), Ptch1 (Mm00436026_ml), Ptch2 (Mm00436047_ml), Sfrp1 (Mm00489161_ml), Smo (Mm01162710_ml) and mouse GAPDH (4352339E), on the ABI 7900HT instrument. Target gene expression levels were normalized to mouse GAPDH and calibrated to vehicle treated mice to yield the relative quantitation (RQ) value. Selective Shh Inhibition in a Mouse Medulloblastoma Allograft Model Primary medulloblastoma tumors were harvested from Ptch^+/−p53^+/− or Ptch^+/−p53^−/− mice and propagated as allografts in SCID-bg mice 6-8 weeks of age (20 grams). Freshly isolated tumor fragments of approximately 50 mm^3 were surgically implanted subcutaneously into the hind flank region. Body weights and tumor size (length and width) were measured at regular intervals using a caliper and tumor volume was calculated using the formula: length (mm)×width (mm)×width (mm)×0.4. For the tumor growth inhibition studies, cohorts of Ptch^+/−p53^+/− medulloblastoma allograft bearing mice with tumors ranging from 200 mm^3 to 1000 mm^3 were dosed daily by oral gavage with vehicle (30% PEG 400/70% PBS) or with PF-04449913 formulated in vehicle.

[7] = cell cycle FACS, bone marrow, 14 days

SMILES: CN1CC[C@@H](NC(=O)Nc2ccc(C#N)cc2)C[C@@H]1c1nc2ccccc2[nH]1 [PF-04449913]
- spleen weight ([1]; 100 mg/kg daily, 14 days, p=0.006): significant decrease
- body weight ([1]; 100 mg/kg oral gavage, 14 days): no evidence of weight loss
- GLI1 transcript level in FACS purified progenitors ([1]; 100 mg/kg, 14 days, p=0.056): reductions
- GLI2 transcript level in FACS purified progenitors ([1]; 100 mg/kg, 14 days, p=0.08): reductions
- expression of cell cycle regulators ([1]; RNA sequencing of engrafted leukemic progenitors, family wise p-value 0.02): repression of cell cycle regulators
- cell cycle gene isoforms shifting toward normal progenitor splice isoform pattern ([1]; RNA sequencing, Fisher exact test p=0.0006): 75 of 110
- sonic hedgehog pathway isoforms reverting to normal progenitor splice isoform pattern ([1]; RNA sequencing, Fisher exact test p=0.0048): 37 of 50
- fraction of leukemic progenitors in G0 [1, 7]: reduced the fraction of leukemic progenitors in G0
- fraction of leukemic progenitors in G1 [1, 7]: increase in the G1 fraction
- human GLI protein expression ([1]; immunofluorescence and nanoproteomics (p=0.001), vs vehicle): reduced human GLI protein expression
- IC50 ([2]; 4.3 nM+/−5.2 nM, N=5, read-out: IC50, SMO competition binding, value with spread): 4.3 nM
- IC50 ([2]; cyclopamine-competitive tritiated SMO antagonist, read-out: IC50, competition with radiolabeled SMO antagonist for binding to human SMO (amino acids 181-787)): 4 nM
- frequency of HSPC, myeloid and lymphoid cell fate commitment (normal human HSPC): remained comparable to vehicle treated controls
- human hematopoietic cell cycle status (normal human HSPC): unaltered
- IC50 [3]: 6.8 nM
- LSC / leukemic progenitor survival [4]: significantly reduced; also recorded: reduction in blast crisis leukemic progenitor survival
- percentage of normal HSPC ([5]; 7 days SL/M2 stromal co-culture): remained constant
- differentiation capacity of normal human HSPC ([5]; hematopoietic progenitor assays): unimpaired
- medulloblastoma growth ([6]; Ptch1+/−p53+/− allograft model): significantly reduce medulloblastoma growth
- Shh target gene expression in allograft ([6]; Ptch+/−p53+/− allografts): decreased Shh target gene expression
